Drawing on article PMC6207720, “Identification and antitumor activity of a novel inhibitor of the NIMA-related kinase NEK6” (Scientific Reports, 2018), this text covers inhibition and IC50 for one compound.

For orientation: inhibition means the percentage by which the read-out fell short of the control. As usually defined, the IC50 is the concentration that inhibits the measured activity by half.

What all share (type): biochemical
The target of one test is T1, NEK9 (Homo sapiens, UniProt Q8TD19).
T1 sequence (Q8TD19 1-979): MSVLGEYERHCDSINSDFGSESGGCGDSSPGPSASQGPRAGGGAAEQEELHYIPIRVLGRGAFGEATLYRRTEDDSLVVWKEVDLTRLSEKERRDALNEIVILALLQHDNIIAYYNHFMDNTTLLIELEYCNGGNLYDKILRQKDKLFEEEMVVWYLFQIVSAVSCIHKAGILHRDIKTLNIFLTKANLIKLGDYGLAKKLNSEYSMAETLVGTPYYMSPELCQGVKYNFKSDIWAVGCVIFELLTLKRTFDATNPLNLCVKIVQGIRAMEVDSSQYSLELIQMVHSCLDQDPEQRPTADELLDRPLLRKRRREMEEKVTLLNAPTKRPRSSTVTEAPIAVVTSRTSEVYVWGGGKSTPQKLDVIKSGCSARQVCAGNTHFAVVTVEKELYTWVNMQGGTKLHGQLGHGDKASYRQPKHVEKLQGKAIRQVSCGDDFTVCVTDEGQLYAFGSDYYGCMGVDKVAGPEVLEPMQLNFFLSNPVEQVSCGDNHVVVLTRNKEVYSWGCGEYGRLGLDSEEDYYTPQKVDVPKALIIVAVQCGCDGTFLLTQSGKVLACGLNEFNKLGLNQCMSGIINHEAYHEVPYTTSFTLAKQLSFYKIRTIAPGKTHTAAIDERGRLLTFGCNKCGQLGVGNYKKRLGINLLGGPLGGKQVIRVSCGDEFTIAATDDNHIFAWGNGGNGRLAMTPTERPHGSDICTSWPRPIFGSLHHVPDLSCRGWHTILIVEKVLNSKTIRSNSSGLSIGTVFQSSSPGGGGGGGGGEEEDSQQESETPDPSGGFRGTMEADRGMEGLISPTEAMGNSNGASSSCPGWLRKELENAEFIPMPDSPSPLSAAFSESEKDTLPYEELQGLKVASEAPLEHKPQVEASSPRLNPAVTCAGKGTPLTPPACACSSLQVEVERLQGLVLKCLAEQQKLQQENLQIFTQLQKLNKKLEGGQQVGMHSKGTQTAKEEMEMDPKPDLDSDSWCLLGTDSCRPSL
Kind of test: Off-chip Mobility Shift Assay (MSA) profiling, NEK9. Conditions: ATP approximating Km. How it is done: (§1) Therefore, we decided to evaluate the selectivity of compound 8 against a panel of NEK kinases at 10 µM, using the technique of Off-chip Mobility shift assay. This concentration was chosen according to the guidelines proposed by Knight and Shokat, since the probability of off-target effects increases dramatically above 10 µM[36]. Furthermore, ATP concentration was set to approximate the Km,ATP for each kinase, so that the resulting selectivity profile directly reflects the intrinsic affinities of the inhibitor[37]. […] A major consequence of this substitution may be the redistribution of surface charges at the flexible activation loop resulting in an altered electrostatic potential and ability of NEK6 kinase to interact with other molecules.
(§2) The inhibitory activity of compounds 8 and 21 on NEK6 was also verified with MSA technique (Off-chip Mobility shift assay) (CARNA Biosciences Study ID: CBS170097, CARNA Biosciences, Kobe). […] PKR Inhibitor was used as positive control. For profiling study against NEK kinases (i.e. NEK1, NEK2, NEK6, NEK7, NEK9) (CARNA Biosciences Study ID: CBS170098), 8 was tested at 10 μM and ATP concentration approximating Km for each kinase. Assay condition for kinases are available on “Kinase profiling book” downloading by www.carnabio.com (https://www.carnabio.com/output/pdf/ProfilingProfilingBook_en.pdf).

Another test has as its target T2, NEK6 (Homo sapiens, UniProt Q9HC98).
T2 construct: purchased Carna 05-130
Kind of test: Off-chip Mobility Shift Assay (MSA), NEK6. How it is done: as §1, §2

For the next test, the target named is NEK7 (Homo sapiens, UniProt Q8TDX7). Kind of test: Off-chip Mobility Shift Assay (MSA) profiling, NEK7. Particulars: ATP approximating Km. How it is done:
as §1, §2

T2 sequence (Q9HC98 whole entry): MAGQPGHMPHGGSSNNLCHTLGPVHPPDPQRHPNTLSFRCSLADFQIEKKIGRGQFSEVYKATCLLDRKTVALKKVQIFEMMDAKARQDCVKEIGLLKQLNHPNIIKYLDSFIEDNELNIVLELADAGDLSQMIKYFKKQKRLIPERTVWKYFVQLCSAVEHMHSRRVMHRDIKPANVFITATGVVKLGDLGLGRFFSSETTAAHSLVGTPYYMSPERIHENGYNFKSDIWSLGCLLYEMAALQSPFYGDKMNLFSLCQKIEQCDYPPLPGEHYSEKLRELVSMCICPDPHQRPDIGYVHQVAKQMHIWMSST
Sequence of NEK7 (Q8TDX7 whole entry): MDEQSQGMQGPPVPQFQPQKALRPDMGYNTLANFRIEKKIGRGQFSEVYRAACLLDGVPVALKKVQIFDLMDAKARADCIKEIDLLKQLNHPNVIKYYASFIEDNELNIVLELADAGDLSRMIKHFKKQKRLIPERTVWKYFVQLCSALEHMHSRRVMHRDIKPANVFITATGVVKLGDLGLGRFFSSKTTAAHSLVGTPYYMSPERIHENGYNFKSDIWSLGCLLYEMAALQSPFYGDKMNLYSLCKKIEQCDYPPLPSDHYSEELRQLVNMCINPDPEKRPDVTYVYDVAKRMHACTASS

Take `CC1=C(C#N)C(O)=NC(=O)/C1=C\c1ccc(-c2ccccc2)o1` [Compound 8, (5Z)-2-hydroxy-4-methyl-6-oxo-5-[(5-phenylfuran-2-yl)methylidene]-5,6-dihydropyridine-3-carbonitrile]: the inhibition at 10 µM on NEK9 is 3.1%; at NEK6 (10 µM, ATP approximating Km), 42.5%; on NEK7, at most 0%. Moreover, the IC50 at NEK6 (CARNA Biosciences Study CBS170097, ATP 75 µM) came out at 13.8 µM.
